According to the SangsterLogP compilation:

Legend:
[1] = not given; remark: listed apart in the source
[2] = not given; remark: listed apart in the source
[3] = method code SF-HPLC, from DOI: 10.1021/jm9509197, PMID: 8648601; details: pH 7.4
[4] = not given; remark: listed apart in the source
[5] = method code SF-AS, from DOI: 10.1016/0005-2736(69)90054-6, PMID: 5349616; details: pH 7.4
[6] = method code SF-AS, from DOI: 10.1248/cpb.21.2309, PMID: 4775970; details: pH 3.3
[7] = method code SF-GLC, from DOI: 10.1021/es60128a001
[8] = not given; remark: listed apart in the source
[9] = method code SF-AS, from DOI: 10.1016/0006-2952(75)90156-2, PMID: 235934; details: pH 7.4
[10] = not given; remark: listed apart in the source
[11] = not given; remark: listed apart in the source
[12] = method code SF, from DOI: 10.1016/0378-5173(86)90155-9; details: pH 7.0
[13] = method code SF-AS, from DOI: 10.1111/j.2042-7158.1980.tb13082.x, PMID: 6110743
[14] = method code SF-AS, from DOI: 10.1039/ft9959100995
[15] = method code SF-NMR, from DOI: 10.1016/j.jpba.2012.12.010, PMID: 23298914
[16] = not given; remark: listed apart in the source
[17] = method code SF-AS, from DOI: 10.1016/0021-9673(91)80064-n
[18] = method code SF, from DOI: 10.1021/js9700917, PMID: 9452977; details: pH 5.5
[19] = method code SF, from DOI: 10.1002/qsar.19920110207; details: pH 1.0
[20] = method code SF-AS, from DOI: 10.1021/bi00405a042
[21] = method code SF-HPLC, from DOI: 10.1177/074823378700300403, PMID: 3433285
[22] = not given; remark: listed apart in the source
[23] = not given; remark: listed apart in the source
[24] = method code SF, from DOI: 10.1248/yakushi1947.93.11_1452, PMID: 4273378
[25] = method code SF, from PMID: 2704; details: pH 1.0
[26] = not given; remark: listed apart in the source
[27] = not given; remark: listed apart in the source
[28] = not given; remark: listed apart in the source
[29] = method code SF-AS, from DOI: 10.2307/3577276, PMID: 2913608
[30] = method code SF-AS, from DOI: 10.1135/cccc19822514; details: pH 3.5
[31] = method code SF-GLC, from DOI: 10.1007/bf00212402, PMID: 7663085
[32] = not given; remark: listed apart in the source
[33] = method code SF-AS, from DOI: 10.1248/cpb.15.1705, PMID: 5583828; details: pH 1.1
[34] = method code SF-RC, from DOI: 10.1002/ps.2780300102; details: pH 2.0
[35] = not given; remark: listed apart in the source
[36] = not given; remark: listed apart in the source
[37] = method code SF-AS, from DOI: 10.1080/09553007214550551, PMID: 4537457
[38] = not given; remark: listed apart in the source

Compound: CCCOC(=O)c1ccccc1Cl
- logP: 3.45

Compound: FC(F)(F)C1(F)C(F)(F)C(F)(F)C(F)(N2C(F)(F)C(F)(F)C(F)(F)C(F)(F)C2(F)F)C(F)(F)C1(F)F (configuration not stated)
- logP [1]: 7

Compound: O=S(=O)(O)c1ccc(-c2ccc(S(=O)(=O)O)cc2)cc1
- logP [2]: 0.3

Compound: O=[N+]([O-])c1ncnc2c1ncn2C1OC(CO)CC1F (configuration not stated)
- logD [3]: -0.4

Compound: C=Cc1ccc(C=C)cc1
- logP [4]: 3.2

Compound: Cc1cc2ccccc2n1C
- logD [5]: 2.82

Compound: Cc1ccc(C)c(C(=O)NS(=O)(=O)c2ccc(N)cc2)c1
- logD [6]: 2.19

Compound: CCOP(=S)(OCC)Oc1ccc(Cl)cc1Cl
- logP [7]: 5.14

Compound: O=C(O)CNC(=O)c1cccc(I)c1
- logP [8]: 1.44

Compound: CC(C)Oc1ccc([N+](=O)[O-])cc1
- logD [9]: 2.8

Compound: CCSc1nnc(C(C)(C)C)c(=O)n1N
- logP [10]: 2.08

Compound: Clc1cc2c(Cl)cc(Cl)c(Cl)c2c(Cl)c1Cl
- logP [11]: 6.87

Compound: CS(=O)CCCOc1ccc([N+](=O)[O-])cc1 (configuration not stated)
- logD [12]: 0.93

Compound: CCCOc1cccc(O)c1
- logP [13]: 2.59

Compound: Nc1ccc2c(S(=O)(=O)O)cc(S(=O)(=O)O)cc2c1
- logP [2]: -1.6

Compound: CC(=O)OCCOCn1cnc2c(=O)[nH]c(N)nc21
- logP [14]: -1.07

Compound: COC(=O)[C@@H](N)Cc1ccc(O)c(I)c1
- logD ([15]; pH 7.7): 0.26

Compound: Cc1cc(Cl)ccc1OCCCC(=O)O
- logP [16]: 3.28

Compound: C=CC(=O)NCCN1CCOCC1
- logP [17]: -0.55

Compound: CC(=O)Nc1ncc2ncn(COCCO)c2n1
- logP [14]: -1.33

Compound: NS(=O)(=O)c1ncncc1-c1ccccc1
- logD [18]: 0.5

Compound: CC(=O)c1cccc(C(=O)O)c1
- logD [19]: 1.56

Compound: CC(=O)NCCc1c[nH]c2ccccc12
- logP [20]: 1.41

Compound: CCCCOc1ccc([N+](=O)[O-])cc1
- logD [9]: 3.5

Compound: COP(=S)(OC)SCn1nnc2ccccc2c1=O
- logP [21]: 2.43

Compound: CON=C(C#N)C(=O)N[C@@H](CCSC)C(=O)O
- logP [22]: 0.86

Compound: CC(C)(N)Cc1ccccc1
- logP [23]: 1.9

Compound: CCOC(=O)c1cccc(O)c1
- logP: 2.47

Compound: Nc1c2ncn(C3OC(CO)CC3F)c2nc[n+]1[O-] (configuration not stated)
- logD [3]: -0.98

Compound: CCCCNC(=O)c1cccnc1
- logP [24]: 0.9

Compound: COc1ccc(C=O)cc1C
- logD [25]: 2.23

Compound: CNC(=O)OCc1cccc(I)c1[N+](=O)[O-]
- logP [26]: 1.64

Compound: CCCCCCOC(=O)c1ccccc1C(=O)OCCCCCC
- logP [27]: 5.8

Compound: O=C(NCc1ccc(O)cc1)c1ccccc1
- logD [12]: 1.87

Compound: O=NN(CCCl)C(=O)NC1CCCC(O)C1 (configuration not stated)
- logP [28]: 1.28

Compound: O=[N+]([O-])c1ccccc1NS(=O)(=O)c1[nH]cnc1[N+](=O)[O-]
- logP [29]: 1.2

Compound: C=CC(=O)NCCCN1CCOCC1
- logP [17]: -0.52

Compound: O=C(O)CCc1ccccc1
- logD [30]: 1.91

Compound: ClC1=C(Cl)C2(Cl)C3C(Cl)C(Cl)(Cl)CC3C1(Cl)C2(Cl)Cl (configuration not stated)
- logP [31]: 6.06

Compound: CC(C(=O)O)c1ccccc1 (configuration not stated)
- logD [30]: 1.8

Compound: COC(=O)[C@@H](N)Cc1cc(I)c(O)c(I)c1
- logD ([15]; pH 6.7): 0.95

Compound: CC(=O)OC[C@H]1O[C@@H](n2cc(C)c(=O)[nH]c2=O)C[C@@H]1O
- logP [32]: -0.25

Compound: COC(=O)COc1ccccc1
- logD [25]: 1.41

Compound: CN(C(=O)NC(C)(C)c1ccccc1)c1ccccc1
- logP [10]: 3.01

Compound: CC(=O)NCCc1ccccc1
- logP [20]: 1.19

Compound: Cc1cc(Cl)ccc1OC(C)C(=O)O (configuration not stated)
- logP [16]: 2.95

Compound: ClC1=C(Cl)C2(Cl)C3CC=CC3C1(Cl)C2(Cl)Cl (configuration not stated)
- logP [31]: 5.57

Compound: C=CCC1(CC)C(=O)NC(=O)NC1=O
- logD [33]: 0.95

Compound: FC1(F)C(F)(F)C(F)(F)C2(F)C(F)(F)C(F)(F)C(F)(F)C(F)(F)C2(F)C1(F)F (configuration not stated)
- logP [1]: 6

Compound: COc1nc(C)nc(NC(=O)NS(=O)(=O)c2ccccc2Cl)n1
- logD [34]: 1.54

Compound: Clc1cc2c(Cl)c(Cl)c(Cl)c(Cl)c2c(Cl)c1Cl
- logP [11]: 7.33

Compound: CON=C(C#N)C(=O)NC(CCS(C)(=O)=O)C(=O)O (configuration not stated)
- logP [22]: -0.52

Compound: CCC1(CCC(C)C)C(=O)NC(=O)NC1=O
- logD [33]: 2.07

Compound: c1ccc2c(c1)[nH]c1ccccc12
- logD [5]: 3.29

Compound: CNC(=O)N(C)c1nc2ccccc2s1
- logP [35]: 2.38

Compound: O=NN(CCCl)C(=O)NC1CCCCC1O (configuration not stated)
- logP [28]: 1.6

Compound: CCOP(=S)(OCC)SCn1c(=O)oc2cc(Cl)ccc21
- logP [7]: 4.3

Compound: CNC(=O)OCc1ccc(I)cc1[N+](=O)[O-]
- logP [26]: 1.67

Compound: CCCCCOc1cccc(O)c1
- logP [13]: 3.63

Compound: NC(=O)Nc1ccc(CC(=O)O)cc1
- logD [34]: 0.01

Compound: Cc1nnc(NS(=O)(=O)c2ccc(N)cc2)s1
- logD [6]: 0.26

Compound: CC(C)(N)Cc1ccc(Cl)cc1
- logP [23]: 2.6

Compound: O=C(O)CCc1cccc(I)c1
- logP [8]: 2.68

Compound: COC(=O)c1ccccc1C(=O)OC
- logP [27]: 1.9

Compound: OCCC(F)(F)C(F)(F)C(F)(F)C(F)(F)C(F)(F)C(F)(F)C(F)(F)C(F)(F)F
- logP [36]: 6.14

Compound: O=C(C(=O)c1ccc(Cl)cc1)c1ccccc1
- logP [4]: 2.6

Compound: CC(=O)c1ccc(C)cc1
- logP [37]: 2.28

Compound: OCCC(F)(F)C(F)(F)C(F)(F)C(F)(F)C(F)(F)C(F)(F)C(F)(F)C(F)(F)C(F)(F)C(F)(F)F
- logP [36]: 7.57

Compound: CCN(CC)C(=O)c1ccccc1C
- logP [21]: 2.02

Compound: Cc1nc(NS(=O)(=O)c2ccc(N)cc2)oc1C
- logD [18]: 0.2

Compound: CCN(CC)C(=O)c1cccnc1
- logP [24]: 0.86

Compound: CC(=O)c1ccc(C(=O)O)cc1
- logD [19]: 1.61

Compound: COc1ccc(C(C)=O)cc1
- logP [37]: 1.82

Compound: c1ccc(Nc2ccc3ccccc3c2)cc1
- logP [38]: 4.38

Compound: ClC1=C(Cl)C2(Cl)C3C4OC4C(Cl)C3C1(Cl)C2(Cl)Cl (configuration not stated)
- logP [38]: 5.4

Compound: Cc1cn([C@H]2C[C@H](N=[N+]=[N-])[C@@H](CO)O2)c(=O)[nH]c1=O
- logP [32]: -0.09

Compound: CCNc1nc(Cl)nc(NC(C)CC)n1 (configuration not stated)
- logP [35]: 3.02
